Patent US20260144769A1, “4-PHENYLBUTYRATE RESTORED GABA UPTAKE AND REDUCED SEIZURES IN SLC6A1 VARIANT-MEDIATED DISORDERS” (Vanderbilt University, priority 2022, published 2026)

Test system: GAT-1 (SLC6A1^+/S295L)
Test: 3H GABA uptake, cortical astrocytes from SLC6A1^+/S295L knockin mice
Assay type: cell-based, mouse
Settings: S295L heterozygous astrocytes; PBA 2 mM, 24 hr; SNAP5114 30 μM
Experimental: Mouse cortical astrocytes or neurons were cultured from postnatal pus at day 0-3 days old for astrocytes and day 0 for neurons from the SLC6A1^+/A288V or SLC6A1^+/S295L mouse line. FIGS. 7A-B show astrocytes under passage 2 were grown in […] dishes and passaged into 35-mm^2 dishes before GABA uptake assay.
FIGS. 7C-D show neurons directly cultured in the 35-mm^2 dishes and GABA uptake was evaluated between day 15-17 days after culture. CI-966 (50 μM) and NNC711 (35 μM) was applied 30 min before preincubation and removed during preincubation. GAT-3 inhibitor SNAP5114 (30 μM) was applied during GABA uptake to make sure only GAT-1 activity was measured. The wildtype astrocytes (FIGS. 7A-B) or cortical neurons (FIGS. 7C-D) of either SLC6A1^+/A288V or SLC6A1^+/S295L were taken as 1. The cultures derived from each mutant mouse was compared to the culture from its own wildtype littermates. […] The wildtype data were pooled from two mouse lines. […] The graph represents the relative GABA uptake level normalized to cells of its own genotype treated with DMSO. CI-966 (50 μM) or NNC-711 (35 μM) was applied 30 min before preincubation and removed during preincubation. Two-way analysis of variance followed by Bonferroni multiple comparison test was used. Values were expressed as mean±S.E.M. In FIG. 7A and FIG. 7C, ***p<0.001 vs. wt; § § § P<0.001 S295L vs. A288V. […]

O=C(O)CCCc1ccccc1 [PBA, 4-phenylbutyric acid]
GABA uptake activity normalized to its own DMSO condition: 1.54±0.13
